From PubChem BioAssay (NCI)
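Results reflect a 48-hour exposure of cells in 96-well plates to compound at five concentrations. TGI is the concentration that stops growth completely.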

What was measured:
Assay in all cases: NCI-60 cell line screen, 48 h
[1] = test system: SNB-78 CNS
[2] = test system: IGROV1 ovarian
[3] = test system: SNB-19 CNS
[4] = test system: K-562 leukemia
[5] = test system: A498 renal
[6] = test system: HOP-92 NSCLC
[7] = test system: HOP-62 NSCLC
[8] = test system: HCT-116 colon
[9] = test system: A549 NSCLC
[10] = test system: SF-295 CNS
[11] = test system: UACC-62 melanoma
[12] = test system: CCRF-CEM leukemia
[13] = test system: SN12C renal
[14] = test system: NCI-H522 lung
[15] = test system: 786-0 renal
[16] = test system: M14 melanoma
[17] = test system: ACHN renal
[18] = test system: MDA-MB-435
[19] = test system: T-47D breast
[20] = test system: BT-549 breast

SMILES | TGI [1] [µM] | TGI [2] [µM] | TGI [3] [µM] | TGI [4] [µM] | TGI [5] [µM] | TGI [6] [µM] | TGI [7] [µM] | TGI [8] [µM] | TGI [9] [µM] | TGI [10] [µM] | TGI [11] [µM] | TGI [12] [µM] | TGI [13] [µM] | TGI [14] [µM] | TGI [15] [µM] | TGI [16] [µM] | TGI [17] [µM] | TGI [18] [µM] | TGI [19] [µM] | TGI [20] [µM]
COC(=O)C(C/C=C(\C)c1ccc(Cl)cc1)C(C)=O (centres undefined) | > 100 | > 100 | > 100 | > 100 | > 100 | 64.2 | > 100 | > 100 | > 90.6 | > 100 | > 100 | > 100 | > 100 | 92.3 | – | – | – | – | – | –
COc1cc(C2C(Cl)C(=O)N2NC(=O)c2ccc(N)cc2)cc(Br)c1O (centres undefined) | 43.9 | 34 | 24 | 48.7 | 59 | 39.8 | 28.9 | 22.3 | 42.8 | 27.7 | 30.4 | 12.1 | 33.4 | 3.4 | 26 | 29.2 | 45.1 | – | – | –
CN(c1cn(C2CC[C@@H](CO)O2)c(=O)[nH]c1=O)C1CCCCC1 (some centres undefined) | – | > 100 | > 100 | > 100 | > 100 | > 100 | > 100 | > 100 | > 100 | > 100 | > 100 | > 100 | > 100 | > 100 | > 100 | > 100 | > 100 | > 100 | > 100 | > 100
O=C(O)CCCc1ccc2ccccc2c1 | – | > 100 | > 100 | > 100 | > 100 | > 100 | > 100 | > 100 | > 100 | > 100 | > 100 | > 100 | > 100 | > 100 | > 100 | > 100 | > 100 | > 100 | > 100 | > 100
COc1ccc2nc3ccc(OC)cc3c(SCc3ccccc3)c2c1 | – | > 100 | > 100 | > 100 | > 100 | > 100 | > 100 | > 100 | > 100 | > 100 | > 100 | > 94.1 | > 100 | > 100 | > 100 | > 50 | > 100 | > 100 | > 100 | > 100
Ic1cc2c(cc1C1SCCCS1)OCO2 | > 100 | > 100 | > 100 | > 100 | > 100 | > 100 | > 100 | > 100 | > 100 | > 100 | > 100 | > 100 | > 100 | > 100 | > 100 | > 100 | > 100 | – | – | –
COc1ccc(/C=C2\CCC/C(=C\c3ccc(O)c(CN4CCCCC4)c3)C2=O)cc1 | – | 41.5 | 70.2 | > 100 | 47.1 | 51.6 | > 56.3 | 13.1 | 52.8 | 36.4 | 36.1 | > 100 | 36.5 | 19.1 | 19.3 | 35.3 | > 82.7 | 39.6 | > 73.8 | 37.7
CC(C)(C)C1=CC(=C2C(=O)C(=O)c3ccccc3C2=O)C=C(C(C)(C)C)C1=O | > 100 | > 100 | > 100 | > 100 | 0.93 | 82.9 | > 100 | > 100 | > 100 | > 100 | > 100 | > 100 | > 100 | 37.9 | > 100 | > 100 | > 100 | – | – | –
CC(=O)OC1COC(N2C(=O)C(=O)c3cc(Br)ccc32)C(OC(C)=O)C1OC(C)=O (centres undefined) | > 100 | > 100 | > 100 | > 100 | > 100 | > 100 | > 100 | – | > 100 | > 100 | > 100 | > 100 | > 100 | > 100 | > 100 | > 100 | > 100 | – | – | –
CCOc1cc2oc(C)cc(=O)c2c(OC)c1C=Nc1ccc(Cn2c(C)nc3ccccc32)cc1 | – | > 100 | > 100 | > 100 | > 100 | > 100 | > 100 | > 100 | > 100 | > 100 | > 100 | > 100 | > 100 | > 100 | > 100 | > 100 | > 100 | > 100 | > 100 | > 100
Cc1c2ccncc2c(C)c2c1[nH]c1ccc(OCC(F)(F)F)cc12 | 5.47 | 3.03 | 3.03 | 3.91 | – | – | 3.03 | – | 3.3 | 3.01 | – | 4.9 | 2.78 | 3.22 | 2.9 | 3.39 | 2.88 | – | – | –
O=c1c2cc(Cl)cc(Cl)c2oc2nc3n(c(=O)c12)CCCS3 | – | > 100 | > 100 | > 100 | > 100 | > 100 | > 100 | > 100 | > 100 | > 100 | > 100 | > 100 | > 100 | 81.6 | > 100 | > 100 | > 100 | > 100 | > 100 | > 100
C[C@@H](NC(=O)c1ccc(CNC(=O)/C=C/c2cccc(Oc3ccccc3)c2)cc1)c1ccccc1 | – | > 100 | > 52.2 | > 100 | > 90.4 | > 100 | > 61.7 | > 100 | > 57.8 | > 100 | > 100 | > 100 | > 100 | > 100 | 35.4 | > 100 | 36 | > 100 | > 100 | > 100
O=C1C=CC(=O)c2c1ccc1c3ccccc3n(Cc3cccc([N+](=O)[O-])c3)c21 | – | 54.7 | > 100 | > 59.9 | > 100 | 43.7 | > 100 | > 62.7 | > 100 | > 100 | > 78.6 | 23 | 49.1 | 37.2 | > 61.4 | 71.7 | 38 | > 65.2 | 67.7 | > 69.7
Nc1cc(=O)n(-c2ccccc2)c(=S)n1-c1ccccc1 | > 100 | > 100 | > 100 | > 100 | > 100 | – | > 100 | > 100 | > 100 | > 100 | > 100 | > 100 | > 100 | > 100 | > 100 | > 100 | > 100 | – | – | –
CC(C)Cc1cc2c(cc1O)CCC1C2CC[C@@]2(C)C1CC[C@@H]2O (some centres undefined) | – | 33.1 | 21.1 | 19.6 | 35.5 | 26.6 | 33.1 | 16.2 | 21.4 | 20.2 | 21.2 | 27.1 | 21.9 | 26 | 23.6 | 19.3 | 20 | 27.8 | 23.4 | 14.2
O=C(CCCl)NNC1=NCCCN1 | – | > 100 | > 100 | > 100 | > 100 | > 100 | > 100 | > 100 | > 100 | > 100 | > 100 | > 100 | > 100 | > 100 | > 100 | > 100 | > 100 | > 100 | > 100 | > 100
O=Cc1ccc(CCl)cc1 | 47.7 | 46.3 | 29.4 | > 100 | 85.8 | 52.5 | – | 29.1 | > 100 | 32 | 27.3 | > 100 | – | 35.9 | – | 33.4 | 54 | – | – | –
COc1ccc2cc(-c3nc(N)nc(N4N=C(C)CC4(C)C)n3)c(=N)oc2c1 | – | 37.8 | 40.1 | 40.2 | 82.1 | 60.5 | 41.6 | 35 | > 100 | 33.2 | 36.3 | 41.4 | 51.7 | 27.8 | 36.3 | 38.1 | 31.8 | 42.1 | 38.9 | 48.1
O=C1C=C(OCCCCl)C(=O)c2c(O)ccc(O)c21 | – | 3.44 | 3.55 | 5.86 | 3.57 | 2.89 | 2.75 | 1.28 | 0.645 | 3.2 | 0.882 | 3.75 | 1.12 | 4.26 | 2.94 | 0.341 | 2.96 | 0.364 | 4.63 | 2.56
COc1cc(-c2[o+]c3cc(O)cc(O)c3cc2O)cc(O)c1O | – | > 100 | > 100 | > 100 | > 100 | > 100 | > 100 | > 100 | > 100 | > 100 | > 100 | 75.9 | > 100 | > 100 | > 100 | > 100 | > 100 | 38.3 | > 100 | > 100
CC(=O)NC(Cc1ccsc1)C(=O)O (centres undefined) | > 100 | > 100 | > 100 | > 100 | > 100 | > 100 | > 100 | > 100 | > 100 | > 100 | > 100 | > 100 | > 100 | > 100 | – | – | – | – | – | –
O=C(Nc1cccc2c1[nH]c1c(-c3ccccc3)nccc12)c1ccccc1[N+](=O)[O-] | > 100 | > 100 | > 100 | > 100 | 60.3 | 9.05 | – | > 100 | > 100 | 88 | – | > 100 | > 100 | – | – | > 100 | > 100 | – | – | –
CSc1ncc2c(n1)sc1c(=O)n(-c3ccccc3)cnc12 | – | > 100 | > 100 | > 100 | > 100 | > 100 | > 100 | > 100 | > 100 | > 100 | > 100 | > 100 | > 100 | > 100 | > 100 | > 100 | > 100 | > 100 | > 100 | > 100
O=C(CSc1nc2ccc(I)cc2c(=O)n1Cc1ccccc1)NNC(=O)c1ccccc1 | – | 24.7 | 63.3 | 15.5 | 25.7 | 28.2 | 22.7 | > 100 | 32.6 | 30.7 | > 100 | > 100 | > 100 | 25.8 | 21 | > 100 | 75.4 | > 100 | 30.5 | 21.3
OCCOc1ccccc2cccc1-2 | – | > 100 | > 100 | > 100 | > 100 | > 100 | > 100 | > 100 | > 100 | > 100 | > 100 | > 100 | > 100 | > 100 | > 100 | > 100 | > 100 | > 100 | > 100 | > 100
c1ccc2c(c1)CCc1[nH]c3c(c1-2)-c1ccccc1CC3 | – | > 100 | > 100 | > 100 | > 100 | > 100 | 58.5 | > 100 | > 100 | > 100 | > 100 | > 100 | > 100 | > 100 | > 100 | > 100 | > 100 | > 100 | > 100 | > 100
